Where a SMILES comes first, the peptide text is derived from it.
system: R. oryzae UCP1295; assay: Screening of the Pandemic Response Box library at 5 µM; format: cell-based, Rhizopus oryzae; conditions: 48 h, Table S1, mean of the four values
Description: Rhizopus oryzae UCP is the most prevalent Mucorales species in human infections and was used as a reference strain to screen the Pandemic Response Box® library. Screening was performed according to Rollin-Pinheiro and colleagues. Each compound was diluted in RPMI 1640 medium (Sigma Chemical Co., St. Louis, MO, USA), supplemented with 2% glucose and buffered with 3-(N-morpholino) propanesulfonic acid (MOPS) (Sigma Chemical Co., St. Louis, MO, USA) (0.165 mol/L, pH 7.2, from here on referred to as ‘supplemented RPMI’) to reach 5 μM in 96-well microtiter plates. Posaconazole (5 μM) and supplemented RPMI containing 1% DMSO were used as controls (both from Sigma Chemical Co., St. Louis, MO, USA). Conidia (2 × 10^5/mL) were added and incubated for 48 h at 37 °C in a 5% CO2 atmosphere. […] An inhibition of at least 60% was defined as the cut-off to select the promising drugs with antifungal activity against the Rhizopus species.

Row | Structure (SMILES) | % of growth inhibition, Mean [%]
1 | COc1ccc(NC(=O)CC2Sc3ncnn3C2=O)cc1 (centres unmarked) [MMV1483032] | -13.1
2 | O=S(=O)(Nc1ccc(-n2cccc2)cc1)c1ccc(Cl)c(Cl)c1 [MMV1505642] | -4.1
3 | CC1(C)Cc2c(C#N)c(SCCc3ccccc3)nc(N3CCOCC3)c2CO1 [MMV1549626] | -26.0
4 | CC[C@H](NC(=O)[C@H](C)NC)C(=O)N1C[C@@H](O)C[C@H]1Cc1c(-c2[nH]c3cc(F)ccc3c2C[C@@H]2C[C@H](O)CN2C(=O)[C@H](CC)NC(=O)[C@H](C)NC)[nH]c2cc(F)ccc12 [MMV1557856] | 3.0
5 | O=C1NC(=O)C(Br)=C1Br [MMV1578554] | -14.5
6 | O=C(Nc1ccc(F)cc1)c1nn(-c2ccccc2)c(=O)cc1Cl [MMV1578555] | -18.6
7 | C[C@H]1CC[C@@]2(O)C(C)(C)[C@@H]3CC[C@@]2(C)[C@H]1C3 [MMV1578556] | -4.8
8 | Cc1c(N)cccc1Cn1ccc(OCCc2cccs2)cc1=O [MMV1578557] | -5.6
9 | CCc1oc2ccccc2c1C(=O)c1ccc(O)cc1 [MMV1578558] | -39.8
10 | CO[C@@]1(NC(=O)Cc2cccs2)C(=O)N2C(C(=O)O)=C(COC(N)=O)CS[C@@H]21 [MMV1578559] | -22.5
11 | NCC(=O)Nc1ccc(-n2nc(C(F)(F)F)cc2-c2ccc3c(ccc4ccccc43)c2)cc1 [MMV1578560] | -14.6
12 | CCCCCCCc1[nH]c2ccccc2c(=O)c1O [MMV1578561] | -24.4
13 | O=S(=O)(Nc1ccccc1)c1ccc(NC(=S)Nc2ccccc2)cc1 [MMV1578562] | -19.4
14 | Fc1ccc2c(/C=C/c3nnn[nH]3)c[nH]c2c1 [MMV1578563] | -0.5
15 | CCc1cc(O)c(Oc2ccc(C(N)=O)cc2F)cc1F [MMV1578564] | -17.4
16 | CSC[C@H]1CN(Cc2c[nH]c3c(N)ncnc23)C[C@@H]1O [MMV1578565] | -14.4
17 | NC[C@H]1OB(O)c2c(OCCCO)cccc21 [MMV1578566] | -20.6
18 | O=c1ccc2ncc(=O)n3c2n1CC3CN1CCC(NCc2cc3c(cn2)OCCC3)CC1 (centres unmarked) [MMV1578568] | -14.8
19 | O=C1NC(=S)N/C1=C\c1cc(Br)cc(Br)c1O [MMV1578569] | -14.5
20 | CCC(C)NCC(O)Cn1c2ccc(Cl)cc2c2cc(Cl)ccc21 (centres unmarked) [MMV1578570] | -22.7
21 | CC(C)(C)c1cc(C(=O)/C(C#N)=N/Nc2cccc(Cl)c2)no1 [MMV1578571] | -7.2
22 | COc1cc(NC(=O)CN2C(=O)NC(c3ccccc3)(c3ccccc3)C2=O)cc(OC)c1 [MMV1578572] | -14.6
23 | COc1ccc(SCC(=O)N2c3ccccc3Sc3ccccc32)cc1 [MMV1578573] | -3.7
24 | CN(C)[C@@H]1C(=O)C(C(N)=O)=C(O)[C@@]2(O)C(=O)C3=C(O)c4c(O)c(NC(=O)CN5CCCC5)cc(F)c4C[C@H]3C[C@@H]12.Cl.Cl [MMV1578574] | -44.3
25 | CC(=O)O[C@H]1C[C@@]2(C)[C@@H](C[C@@H](O)[C@H]3[C@@]4(C)CC[C@@H](O)[C@@H](C)[C@@H]4CC[C@@]32C)/C1=C(\CCC=C(C)C)C(=O)O [MMV1578575] | -21.4

Row | Structure (SMILES) | % of growth inhibition, Mean [%]
26 | O=C(Cc1ccccc1F)Nc1nc2ccccc2[nH]1 [MMV1578576] | -39.7
27 | O=C(NC12CC3CC(CC(C3)C1)C2)c1cc2ccccc2[nH]1 [MMV1578577] | -4.8
28 | O=C(Nc1nnc(-c2ccccc2)o1)c1ccc(F)cc1 [MMV1578578] | -32.9
29 | COc1ccc(C)cc1NC(=O)c1ccc(S(=O)(=O)N2CCCCC2)cc1 [MMV1578579] | -3.3
30 | CCCCOC(=O)Nc1cc2nc(C3CCCCC3)[nH]c2cc1N(CC)CC [MMV1578842] | -0.4
31 | O=c1cc(NCCCN[C@@H]2CCOc3c(Br)cc(Br)cc32)[nH]c2ccsc12 [MMV1578884] | -1.3
32 | O=c1nc(N2CCN(CC3CCCCC3)CC2)sc2c([N+](=O)[O-])cc(C(F)(F)F)cc12 [MMV1578885] | -14.2
33 | c1ccc(Cn2c(-c3ccccn3)nc3ccccc32)cc1 [MMV1578886] | -11.3
34 | Fc1ccc2c(/C=C/c3cccnc3)c[nH]c2c1 [MMV1578889] | -15.1
35 | O=S(=O)(Nc1cccc2cccnc12)c1ccccc1 [MMV1578890] | 0.6
36 | O=C(Cn1cnc2ccccc2c1=O)Nc1ccccc1 [MMV1578891] | -16.0
37 | Cc1ccc(NC(=O)c2cc(Cl)ccc2O)cc1 [MMV1578897] | -1.2
38 | CCOC(=O)N1CCN(c2ccc(Cl)cc2)CC1 [MMV1578898] | 0.3
39 | CCCC(=O)OCCc1ccccc1 [MMV1578899] | -2.6
40 | CC(Oc1ccc(Cl)cc1Cl)C(=O)NCc1ccc2c(c1)OCO2 (centres unmarked) [MMV1578925] | -25.4
41 | C=C(C)n1c(=O)n(Cc2ccccc2C)c2ccccc21 [MMV1579354] | -31.3
42 | O=c1cc(OCc2ccccc2)ccn1Cc1ccccc1 [MMV1579775] | -7.1
43 | NS(=O)(=O)c1ccc(NC(=O)NC(c2ccccc2)c2ccccc2)cc1 [MMV1579776] | -24.2
44 | O=[N+]([O-])c1cn(Cc2nc(O)nc(O)c2Br)cn1 [MMV1579777] | -6.3
45 | C[C@H](NC(CC(=O)c1ccccc1C(F)(F)F)C(=O)O)c1ccccc1 (some centres unmarked) [MMV1579778] | -13.5
46 | CC(=O)Nc1cc(NS(=O)(=O)c2ccc(Cl)cc2)cc2c(Cl)n[nH]c12 [MMV1579779] | -33.3
47 | CC(C)n1cnc2c(NCc3ccccc3)nc(NCc3ccccc3)nc21 [MMV1579780] | -15.2
48 | CC(Cc1ccccc1)C(=O)Nc1ccc(Cl)cc1C(=O)O (centres unmarked) [MMV1579781] | -32.3
49 | Cc1cccc(CC(=O)N[C@H]2CCOC2=O)c1 [MMV1579782] | -2.1
50 | CCCCSc1nc(N)c2[nH]c(=O)c(=O)n(Cc3ccccc3)c2n1 [MMV1579783] | -34.5

Row | Structure (SMILES) | % of growth inhibition, Mean [%]
51 | O=C(Nc1ccccc1C(=O)O)c1cccc(Oc2ccccc2)c1 [MMV1579784] | -27.4
52 | N#CCN1C(=O)COc2cc(F)c(N3C(=O)c4ccccc4C3=O)cc21 [MMV1579785] | -18.3
53 | Cl.Cl.NCCCc1ccccc1C(=O)Nc1ncc([N+](=O)O)s1 [MMV1579786] | -16.7
54 | O=C(CP(=O)(O)O)NCCc1cccc(Oc2ccccc2)c1 [MMV1579787] | -30.1
55 | Cc1c(CN(C)C(=O)/C=C/c2cnc3c(c2)C(C)(C)C(=O)N3)oc2ccccc12 [MMV1579788] | -28.8
56 | Cl.N=C(N)c1ccc(COc2ccc(Cl)cc2)cc1 [MMV1579844] | -3.3
57 | O=C(NCc1cccc2ccccc12)c1cccs1 [MMV1579845] | -15.7
58 | COc1cc(Cc2cc(N)nc(N)n2)cc(OC)c1OC [MMV1579846] | -11.6
59 | Cc1ccn2c(C(=O)NCc3ccccc3)c(C)nc2c1 [MMV1579847] | -7.2
60 | CC(N)C(=O)NC(CCCCN)C(=O)NC(CCCNC(=N)N)C(=O)NC(Cc1c[nH]cn1)C(=O)NC(Cc1c[nH]cn1)C(=O)NCC(=O)NC(Cc1ccc(O)cc1)C(=O)NC(CCCCN)C(=O)NC(CCCNC(=N)N)C(=O)NC(CCCCN)C(=O)NC(Cc1ccccc1)C(=O)NC(Cc1c[nH]cn1)C(N)=O (centres unmarked) [MMV1579849] (H-AKRHHGYKRKFH-NH2; configuration not given here) | -25.8
61 | N[C@@H]1CN(c2c(F)cc3c(=O)c(C(=O)O)cn([C@@H]4C[C@@H]4F)c3c2Cl)CC12CC2 [MMV1579850] | -4.9
62 | O=C(O)c1ccccc1Sc1ncnc2sc3c(c12)CCC3 [MMV1579878] | -41.9
63 | COc1cc(NCc2ccc3nc(N)nc(N)c3c2C)cc(OC)c1OC [MMV1580173] | 46.8
64 | C[C@H](Cn1cnc2c(N)ncnc21)OCP(=O)(O)O [MMV1580478] | -19.5
65 | CN(C)CC(=O)Nc1ccc2[nH]c(=O)c3ccccc3c2c1 [MMV1580480] | -3.9
66 | CN1CCN(Cc2ccc(-c3cnc4[nH]cc(-c5ccc6[nH]ccc6c5)c4c3)cc2)CC1 [MMV1580482] | 1.5
67 | CN(C)CCCOc1ccc(-c2ccc3ncc4c(c3c2)n(C2CCOCC2)c(=O)n4C)cn1 [MMV1580483] | -5.4
68 | COc1ccccc1NC(=O)c1ccccc1Sc1ccc([N+](=O)[O-])cc1 [MMV1580484] | -7.7
69 | COc1ccc(OCc2ccc(COc3c(Cl)cccc3Cl)cc2)c(Cl)c1 [MMV1580485] | -2.8
70 | Cc1nc(N(C)C(=O)Cc2ccc(-c3ccccn3)cc2)sc1S(N)(=O)=O [MMV1580486] | -4.4
71 | C/C(=N\NC(=O)C1CC1c1ccccc1)c1ccc(NC(=O)c2ccco2)cc1 (centres unmarked) [MMV1580487] | 0.3
72 | CN(C)CCCNC(=O)c1ccc(-c2cc(O)c3ncccc3c2)cc1 [MMV1580488] | 37.5
73 | CC[N+]1(C/C2=C/CCCCCC2)CCC(NC(=O)C2c3cc(Cl)ccc3Oc3ccc(Cl)cc32)CC1.[I-] (centres unmarked) [MMV1580489] | -4.5
74 | c1cnc(NCc2ccc(CNc3ncccn3)cc2)nc1 [MMV1580490] | -10.6

Source: PMC9959553, “Promising Antifungal Molecules against Mucormycosis Agents Identified from Pandemic Response Box®: In Vitro and In Silico Analyses” (Journal of Fungi, 2023)
